Consider 31 compounds from patent US9783536B2, “Nitrogen-containing heterocyclic compound or salt thereof” (FUJIFILM Corporation, priority 2013, dated 2017).

For assay [1], the target named is T1, GST fusion human ERK2 protein (Homo sapiens, UniProt P28482).
T1 construct: purchased Carna Biosciences, Inc; host or cells: E. coli expression system
The assay is described as follows: ERK2 enzyme assay (2). In kind it is biochemical. Conditions: ERK2 enzyme assay (2); read-out: ERK2 enzyme inhibitory activity (2). The method in brief: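 GST-tagged human ERK2 expressed in E. coli (1.25 nmol/L) was preincubated with compound for 15 min at room temperature in pH 7.5 Hepes buffer with MgCl2, DTT and Brij35. Reaction with FL-Peptide 8 (final 4.25 μmol/L) and ATP (final 1 mmol/L) ran 120 min at 25 °C; EDTA stopped it, and phosphorylated peptide was quantified by mobility-shift separation to derive IC50.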

In a further assay the target is T2, human PI3Kα protein (Homo sapiens, UniProt P42336).
T2 construct: purchased Carna Biosciences, Inc; host or cells: baculovirus expression system
T2 sequence (P42336 whole entry): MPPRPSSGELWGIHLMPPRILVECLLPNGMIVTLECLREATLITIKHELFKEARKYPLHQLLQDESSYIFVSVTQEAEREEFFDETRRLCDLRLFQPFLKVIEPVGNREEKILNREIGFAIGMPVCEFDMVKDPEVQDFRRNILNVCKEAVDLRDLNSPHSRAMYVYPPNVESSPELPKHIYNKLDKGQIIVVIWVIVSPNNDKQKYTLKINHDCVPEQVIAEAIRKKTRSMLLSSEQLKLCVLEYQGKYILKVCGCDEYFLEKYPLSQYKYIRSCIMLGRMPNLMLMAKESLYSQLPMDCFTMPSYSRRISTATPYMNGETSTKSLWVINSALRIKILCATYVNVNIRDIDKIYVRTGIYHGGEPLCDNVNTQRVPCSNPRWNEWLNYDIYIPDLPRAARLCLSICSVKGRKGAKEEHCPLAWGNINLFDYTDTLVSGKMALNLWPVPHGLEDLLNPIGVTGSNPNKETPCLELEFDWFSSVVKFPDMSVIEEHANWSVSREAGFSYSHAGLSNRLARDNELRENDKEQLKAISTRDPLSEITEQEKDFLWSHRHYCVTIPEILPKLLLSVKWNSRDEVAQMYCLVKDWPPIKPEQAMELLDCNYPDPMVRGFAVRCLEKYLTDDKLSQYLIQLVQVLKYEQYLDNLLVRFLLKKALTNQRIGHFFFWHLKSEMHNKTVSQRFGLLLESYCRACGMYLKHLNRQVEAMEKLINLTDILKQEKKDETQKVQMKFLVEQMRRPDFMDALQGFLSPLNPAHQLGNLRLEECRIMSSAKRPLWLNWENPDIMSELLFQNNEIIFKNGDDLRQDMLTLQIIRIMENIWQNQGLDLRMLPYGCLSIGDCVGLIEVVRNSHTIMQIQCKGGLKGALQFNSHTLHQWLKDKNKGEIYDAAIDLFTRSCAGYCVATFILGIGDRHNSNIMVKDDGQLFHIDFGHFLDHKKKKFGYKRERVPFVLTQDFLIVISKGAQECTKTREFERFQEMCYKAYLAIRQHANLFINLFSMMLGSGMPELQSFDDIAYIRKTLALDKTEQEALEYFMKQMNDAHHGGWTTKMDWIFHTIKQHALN
T2 sequence (P27986 whole entry partner): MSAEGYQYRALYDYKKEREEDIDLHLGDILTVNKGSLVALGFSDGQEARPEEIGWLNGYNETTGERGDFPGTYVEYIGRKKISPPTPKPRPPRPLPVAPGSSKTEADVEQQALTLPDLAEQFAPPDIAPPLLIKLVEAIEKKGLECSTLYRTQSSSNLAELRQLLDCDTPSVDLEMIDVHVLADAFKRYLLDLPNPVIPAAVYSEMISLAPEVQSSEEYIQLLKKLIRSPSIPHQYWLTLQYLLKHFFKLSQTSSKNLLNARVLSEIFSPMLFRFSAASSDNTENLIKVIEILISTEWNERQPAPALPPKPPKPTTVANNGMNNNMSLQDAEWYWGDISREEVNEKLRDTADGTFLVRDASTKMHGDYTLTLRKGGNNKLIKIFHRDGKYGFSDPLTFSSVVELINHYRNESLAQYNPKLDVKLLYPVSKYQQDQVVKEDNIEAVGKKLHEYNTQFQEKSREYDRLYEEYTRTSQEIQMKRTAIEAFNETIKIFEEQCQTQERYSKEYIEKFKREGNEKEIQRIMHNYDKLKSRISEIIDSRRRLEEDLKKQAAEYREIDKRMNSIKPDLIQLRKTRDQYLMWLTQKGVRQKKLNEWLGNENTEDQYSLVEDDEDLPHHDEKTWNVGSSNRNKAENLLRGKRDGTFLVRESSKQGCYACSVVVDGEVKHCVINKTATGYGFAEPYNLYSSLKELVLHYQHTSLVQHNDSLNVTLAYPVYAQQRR
Nature of the assay: PI3Kα enzyme assay (ADP-Glo). Conditions: read-out: PI3Kα enzyme inhibitory activity. Type of assay: biochemical. The method in brief: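 Biotinylated human PI3Kα (baculovirus-expressed, 4.5 nmol/L) pre-incubated 15 min with compound in Tris-HCl pH 7.5, MgCl2, BSA; reaction 60 min at 25° C with 50 μmol/L PIP2 and 100 μmol/L ATP final. ADP quantified by ADP-Glo luminescence; IC50 calculated.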

The next assay deals with CHO-K1 cells. The assay is described as follows: CHO cell toxicity test. In kind it is cell-based, Chinese hamster. Conditions: Cricetulus griseus, read-out: IC50 value (concentration at which the number of viable cells was suppressed to 50% or less). On the procedure:
In a CHO cell toxicity test, the following was used.
Cell: CHO-K1 cells (derived from Chinese hamster ovary) Test medium: F-12 MEDIUM+FCS (manufactured by Biowest) having a final concentration of 2%
Detection reagent: CELLTITER-GLO™ LUMINESCENT CELL VIABILITY ASSAY (trade name, manufactured by PROMEGA Corporation)
The CHO-K1 cells were seeded in a 96-well microplate for culture at 5,000 cells/well, and cultured in a CO2 incubator (37° C.) for 24 hours. An evaluation compound (final concentration: from 25.00 μmol/L to 0.20 μmol/L, common ratio: […]) was added thereto, followed by culturing for 24 hours, and the number of viable cells was calculated from emission intensity by CELLTITER-GLO™ (trade name, manufactured by PROMEGA Corporation). In the measurement of the emission intensity, VARIOSKAN FLASH (manufactured by Thermo Fisher Scientific Inc.) was used.
Inhibition ratio (%)=100−(A/B)×100
A: Emission intensity in the presence of a test compound
B: Emission intensity in the absence of a test compound

Setting [2] is: CHO-K1 cells, 24 hours culture with compound, CellTiter-Glo.

Each structure is given as a SMILES string. Like-named read-outs stand apart in the source and are kept apart here. Bounds are passed on as bounds.

T1 sequence (P28482 whole entry, the tested form may be a part): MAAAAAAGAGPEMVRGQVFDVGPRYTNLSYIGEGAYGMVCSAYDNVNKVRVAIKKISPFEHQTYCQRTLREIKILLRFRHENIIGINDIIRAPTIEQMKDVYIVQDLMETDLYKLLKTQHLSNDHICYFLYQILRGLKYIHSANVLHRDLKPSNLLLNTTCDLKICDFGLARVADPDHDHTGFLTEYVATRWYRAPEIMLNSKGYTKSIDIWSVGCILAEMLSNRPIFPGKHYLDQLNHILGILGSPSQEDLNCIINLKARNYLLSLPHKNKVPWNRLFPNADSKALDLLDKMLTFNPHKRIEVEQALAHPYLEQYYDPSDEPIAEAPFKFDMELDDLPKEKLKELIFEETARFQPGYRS

For the compound `CC(C)c1cnnc(Nc2ccc3ncc(-c4cn(C)nc4-c4ccc(C#N)nc4)cc3n2)c1` [Example 0455], the IC50 in assay [1] was below 1000 nM; on human PI3Kα protein, below 1000 nM; with CHO-K1 cells (setting [2]), at least 25 µM.
On to `COc1ccc(-c2nn(C)cc2-c2cnc3ccc(Nc4cc(C(C)C)cnn4)nc3c2)cn1` [Example 0456], for which the figures for the IC50 (in assay [1]; on human PI3Kα protein; in the assay on CHO-K1 cells (setting [2])) were below 1000 nM, below 1000 nM and at least 25 µM, respectively.
`CC(C)c1cnnc(Nc2ccc3ncc(-c4cnn(CC(F)(F)F)c4)cc3n2)c1` [Example 0460]: the IC50 in assay [1] was below 1000 nM; on human PI3Kα protein, below 1000 nM; in the assay with CHO-K1 cells (setting [2]), at least 25 µM.
Consider `CC(C)c1cnnc(Nc2ccc3ncc(-c4cnn(Cc5ccc(N6CCOCC6)nc5)c4)cc3n2)c1` [Example 0462, N-(5-isopropylpyridazin-3-yl)-7-(1-((6-morpholinopyridin-3-yl)methyl)-1H-pyrazol-4-yl)-1,5-naphthyridine-2-amine], for which the values for the IC50 (in assay [1]; on human PI3Kα protein; with CHO-K1 cells (setting [2])) were below 1000 nM, below 1000 nM and at least 25 µM, respectively.
With `FC(F)(F)Cn1cc(-c2cnc3ccc(Nc4cc(C5CC5)cnn4)nc3c2)cn1` [Example 0465, N-(5-cyclopropylpyridazin-3-yl)-7-(1-(2,2,2-trifluoroethyl)-1H-pyrazol-4-yl)-1,5-naphthyridine-2-amine], the IC50 in assay [1] is below 1000 nM; at human PI3Kα protein, below 1000 nM; in the assay on CHO-K1 cells (setting [2]), at least 25 µM.
Turning to `CC(C)c1cnnc(Nc2ccc3ncc(-c4cnn(C5CCN(S(C)(=O)=O)CC5)c4)cc3n2)c1` [Example 0479], the IC50 was below 1000 nM in assay [1], below 1000 nM on human PI3Kα protein and at least 25 µM with CHO-K1 cells (setting [2]).
For `CC(C)c1cnnc(Nc2ccc3ncc(-c4cnn(CC5CCOCC5)c4)cc3n2)c1` [Example 0482], the IC50 in assay [1] is below 1000 nM; on human PI3Kα protein it was below 1000 nM; in the assay on CHO-K1 cells (setting [2]), at least 25 µM.
Regarding `CC(C)c1cnnc(Nc2ccc3ncc(-c4cnn(CC5CCN(C)CC5)c4)cc3n2)c1` [Example 0486, N-(5-isopropylpyridazin-3-yl)-7-(1-((1-methylpiperidin-4-yl)methyl)-1H-pyrazol-4-yl)-1,5-naphthyridine-2-amine], the IC50 in assay [1] is below 1000 nM; at human PI3Kα protein it was below 1000 nM; in the assay on CHO-K1 cells (setting [2]), at least 25 µM.
For `CC(C)c1cnnc(Nc2ccc3ncc(-c4cnn(CCC5CCN(C)CC5)c4)cc3n2)c1` [Example 0487, N-(5-isopropylpyridazin-3-yl)-7-(1-(2-(1-methylpiperidin-4-yl)ethyl)-1H-pyrazol-4-yl)-1,5-naphthyridine-2-amine], the figures for the IC50 (in assay [1]; at human PI3Kα protein; with CHO-K1 cells (setting [2])) were below 1000 nM, below 1000 nM and at least 25 µM, respectively.
Turning to `CC(C)c1cnnc(Nc2ccc3ncc(-c4cnn(C5CN(C)C5)c4)cc3n2)c1` [Example 0490], the IC50 in assay [1] was below 1000 nM; on human PI3Kα protein, below 1000 nM; in the assay with CHO-K1 cells (setting [2]), at least 25 µM.
For the compound `CC(C)c1cnnc(Nc2ccc3ncc(-c4cnn(CC5CN(C)C5)c4)cc3n2)c1` [Example 0491], the IC50 was below 1000 nM in assay [1], below 1000 nM on human PI3Kα protein and at least 25 µM with CHO-K1 cells (setting [2]).
Regarding `CC(C)c1cnnc(Nc2ccc3ncc(-c4cnn([C@H]5CCN(C)C5)c4)cc3n2)c1` [Example 0492], the IC50 in assay [1] is below 1000 nM; at human PI3Kα protein, below 1000 nM; with CHO-K1 cells (setting [2]), at least 25 µM.
On to `CC(C)c1cnnc(Nc2ccc3ncc(-c4cnn([C@@H]5CCN(C)C5)c4)cc3n2)c1` [Example 0493], for which the IC50 in assay [1] is below 1000 nM; on human PI3Kα protein, below 1000 nM; in the assay on CHO-K1 cells (setting [2]), at least 25 µM.
Take `CCN(c1cnnc(Nc2ccc3ncc(-c4cnn(C)c4)cc3n2)c1)C(C)C` [Example 0500]: the figures for the IC50 (in assay [1]; at human PI3Kα protein; in the assay with CHO-K1 cells (setting [2])) were below 1000 nM, below 1000 nM and at least 25 µM, respectively.
For `CC(C)c1cnnc(Nc2ccc3ncc(-n4ccnc4)cc3n2)c1` [Example 0510, 7-(1H-imidazol-1-yl)-N-(5-isopropylpyridazin-3-yl)-1,5-naphthyridine-2-amine], the IC50 in assay [1] is below 1000 nM; at human PI3Kα protein, 1000 to 10000 nM; in the assay with CHO-K1 cells (setting [2]), at least 25 µM.
The like results for `CC(C)c1cnnc(Nc2ccc3ncc(-c4cn(C)nc4-c4cccnc4)cc3n2)c1` [Example 0515] were, in that order, below 1000 nM, below 1000 nM and at least 25 µM.
The like results for `CCN(CC)c1cnnc(Nc2ccc3ncc(-c4cnn(C)c4)cc3n2)c1` [Example 0517] were, in that order, below 1000 nM, below 1000 nM and at least 25 µM.
The like results for `CC(C)c1cnnc(Nc2ccc3ncc(-c4cnn(CC5CCN(S(C)(=O)=O)CC5)c4)cc3n2)c1` [Example 0530] were, in that order, below 1000 nM, below 1000 nM and at least 25 µM.
For the compound `CC(C)c1cnnc(Nc2ccc3ncc(-c4c[nH]nc4-c4cccnc4)cc3n2)c1` [Example 0545], the IC50 in assay [1] is below 1000 nM; at human PI3Kα protein, below 1000 nM; with CHO-K1 cells (setting [2]) it was at least 25 µM.
For the compound `CC(C)c1cnnc(Nc2ccc3ncc(-c4cnn(CC(=O)N(C)C)c4)cc3n2)c1` [Example 0549, 2-(4-(6-((5-Isopropylpyridazin-3-yl)amino)-1,5-naphthyridin-3-yl)-1H-pyrazol-1-yl)-N,N-dimethylacetamide], the results for the IC50 (in assay [1]; on human PI3Kα protein; with CHO-K1 cells (setting [2])) were below 1000 nM, below 1000 nM and at least 25 µM, respectively.
In the case of `CC(C)c1cnnc(Nc2ccc3ncc(-c4cnn(CCCS(C)(=O)=O)c4)cc3n2)c1` [Example 0550], the IC50 in assay [1] is below 1000 nM; on human PI3Kα protein it was below 1000 nM; with CHO-K1 cells (setting [2]) it was at least 25 µM.
Turning to `CC(C)c1cnnc(Nc2ccc3ncc(-c4cn(C)nc4-c4ccncc4)cc3n2)c1` [Example 0552], the IC50 in assay [1] was below 1000 nM; at human PI3Kα protein, below 1000 nM; in the assay with CHO-K1 cells (setting [2]), at least 25 µM.
As for `CC(C)c1cnnc(Nc2ccc3ncc(-c4cnn(C[C@@H]5CCC(=O)N5C)c4)cc3n2)c1` [Example 0557, (S)-5-((4-(6-((5-isopropylpyridazin-3-yl)amino)-1,5-naphthyridin-3-yl)-1H-pyrazol-1-yl)methyl)-1-methylpyrrolidin-2-one], the IC50 in assay [1] was below 1000 nM; on human PI3Kα protein, below 1000 nM; with CHO-K1 cells (setting [2]) it was at least 25 µM.
In the case of `CC(C)c1cnnc(Nc2ccc3ncc(-c4cn(C)nc4C4CC4)cc3n2)c1` [Example 0567], the IC50 in assay [1] is below 1000 nM; on human PI3Kα protein it was below 1000 nM; in the assay with CHO-K1 cells (setting [2]), at least 25 µM.
`CC(C)c1cnnc(Nc2ccc3ncc(-c4cnn(CC5CN(S(C)(=O)=O)C5)c4)cc3n2)c1` [Example 0572, N-(5-isopropylpyridazin-3-yl)-7-(1-((1-(methylsulfonyl)azetidin-3-yl)methyl)-1H-pyrazol-4-yl)-1,5-naphthyridine-2-amine]: the IC50 in assay [1] was below 1000 nM; at human PI3Kα protein, below 1000 nM; in the assay with CHO-K1 cells (setting [2]), at least 25 µM.
In the case of `Cn1cc(-c2cnc3ccc(Nc4cc(C5CC5)cnn4)nc3c2)c(-c2cccnc2)n1` [Example 0573, N-(5-cyclopropylpyridazin-3-yl)-7-(1-methyl-3-(pyridin-3-yl)-1H-pyrazol-4-yl)-1,5-naphthyridine-2-amine], the figures for the IC50 (in assay [1]; at human PI3Kα protein; in the assay with CHO-K1 cells (setting [2])) were below 1000 nM, below 1000 nM and at least 25 µM, respectively.
Take `CCn1cc(-c2cnc3ccc(Nc4cc(C(C)C)cnn4)nc3c2)c(-c2cccnc2)n1` [Example 0576]: the IC50 in assay [1] was below 1000 nM; on human PI3Kα protein, below 1000 nM; with CHO-K1 cells (setting [2]), at least 25 µM.
For `CC(C)c1cnnc(Nc2ccc3ncc(-c4cn(C)nc4-c4cncs4)cc3n2)c1` [Example 0583], the IC50 in assay [1] was below 1000 nM; at human PI3Kα protein, below 1000 nM; in the assay on CHO-K1 cells (CHO-K1, 24 h), at least 25 µM.
Take `CC(C)c1cnnc(Nc2ccc3ncc(-c4cnn(CCCN5CC6(COC6)C5)c4)cc3n2)c1` [Example 0613]: the IC50 in assay [1] is below 1000 nM; at human PI3Kα protein, below 1000 nM; in the assay with CHO-K1 cells (setting [2]), at least 25 µM.
As to `CC(C)c1cnnc(Nc2ccc3ncc(-c4cnn(CCCN5C[C@@H](C)O[C@H](C)C5)c4)cc3n2)c1` [Example 0614], the IC50 in assay [1] was below 1000 nM; at human PI3Kα protein it was below 1000 nM; with CHO-K1 cells (setting [2]), at least 25 µM.
With `CC(C)c1cnnc(Nc2ccc3ncc(-c4cnn(CCCN5C[C@@H](C)O[C@@H](C)C5)c4)cc3n2)c1` [Example 0615], the IC50 was below 1000 nM in assay [1], below 1000 nM on human PI3Kα protein and at least 25 µM in the assay with CHO-K1 cells (setting [2]).
